Counter-ions that a name gives are not always drawn.
Tested on: scopolamine-induced working memory deficit
Assay: scopolamine-induced working memory deficit in the delayed match to position (DMTP) task in rats
Type: in vivo, Male Lister Hooded rats
Details: for effect on the scopolamine deficit in DMTP task (percent correct responses): combination: Compound 23 1 mg/kg p.o. 180 min prior to testing, donepezil hydrochloride 1 mg/kg p.o. 145 min later, scopolamine 0.06 mg/kg s.c. 5 min later
Method: Except for during testing, water was available ad libitum at all times. The rats were tested in Med Associates operant chambers, equipped with 2 retractable levers positioned 7.5 cm either side of a central food tray. A single stimulus light (cue light) was positioned above each lever. Aluminum barriers (5.5 cm chamber extension) were fitted within the chamber to separate each lever from the food magazine. The chambers were controlled by Kestrel software (Conclusive Solutions, Harlow, UK) operating on an IBM compatible PC.
Rats were initially trained to lever press for a food reward (45 mg Formula ‘P’ pellet, Noyes, N.H.) on a continuous reinforcement (CRF) schedule with each lever presented singly an equal number of times (total 96 trials). On acquiring this behaviour the animals were next trained to make a matching response. Each trial consisted of a single lever being inserted into the chamber and the illumination of the appropriate stimulus light (sample stage). The rat was required to press the sample lever, which then immediately retracted. […] If the animal pressed the other lever, it was recorded as an incorrect response and was unrewarded. […] The next trial was signalled by illumination of the house light for a 5 s period, after which the sample lever was extended. The number of such trials per session was 96.
Initially, the delay between the sample and choice stage was 1 s after the first magazine nose poke. Once the animals had learned the matching rule (≧90% correct), the delay period was increased to 1, 2 and 4 s (32 trials per delay), up to a final level of 1, 2, 4, 8, 16, 24s. Sixteen trials were run at each delay. […] The parameters measured include % correct (total no. correct/(total no. correct+incorrect)×100) both for the total session and for each delay interval. Percent correct responses at each delay interval were analysed using an analysis of variance (ANOVA) with repeated measures on Treatment and Delay. Total percent correct responses were analysed using an ANOVA with repeated measures on Treatment. Post hoc tests were conducted by Newman-Keuls test. Statistical significance was accepted at P<0.05.
The experiment was conducted using a repeated measures design with each animal receiving each treatment according to a counterbalanced design. Animals were run 5 days/-week, with drug treatment on 2 test days per week, separated by at least 2 days. […] Scopolamine hydrobromide was dissolved in saline solution and was administered s.c. using an injection volume of 1 ml/kg.

SMILES | effect on the scopolamine deficit in DMTP task (percent correct responses) | total correct responses collapsed over the delay intervals (scopolamine 0.06 mg/kg s.c.) | percent correct responses (per delay interval) (scopolamine 0.06 mg/kg s.c., delays 1-24 s)
Cc1cc(-c2cccc(C3=Nc4cc(C)c(C(F)(F)F)cc4NC(=O)C3)c2)cc(C)n1 [Compound 23, 4-[3-(2,6-dimethyl-pyridin-4-yl)-phenyl]-7-methyl-8-trifluoromethyl-1,3-dihydro benzo[b][1,4]diazepin-2-one] | reversal of the scopolamine deficit | – | –
CN1[C@@H]2C[C@@H](OC(=O)[C@H](CO)c3ccccc3)C[C@H]1[C@@H]1O[C@@H]12 [Scopolamine, Scopolamine hydrobromide] | – | significant reduction | significant delay-dependent reduction
COc1cc2c(cc1OC)C(=O)C(CC1CCN(Cc3ccccc3)CC1)C2 (stereo not shown) [donepezil hydrochloride] | reversal of the scopolamine deficit | – | –

Reference: patent US7235547B2, “Pharmaceutical composition comprising an AChE inhibitor and a mGluR2 antagonist” (priority 2003, dated 2007)
